Consider five compounds from patent US4141991A, “Ferrocene derivatives” (Hoechst Aktiengesellschaft, priority 1976, dated 1979).

Data set [1] deals with liver ferritin. Put plainly: Analysis of the ferritin from rat livers (quantitative determination of ferritin protein and its iron content). Type of data set: in vivo. To be noted: for Ratio of iron to protein: rat liver ferritin, two successive daily doses corresponding to 52.5 mg Fe/kg; for Ratio of iron to protein / Ferritin-iron / Ferritin-protein: average values from 6 animals; for Ferritin-iron / Ferritin-protein: two successive daily doses corresponding to 52.5 mg Fe/kg (table; text 52.2), 24 hours after 2nd administration. As for the experimental part:
24 hours after the 2nd administration the animals were killed. […] For this, ferritin is isolated from the liver by thermal denaturation, ammonium sulfate fractionation and gel filtration, and the protein is determined by amino acid analysis and the iron content by atom absorption.

The subject of data set [2] is liver ferritin. Put plainly: Histological comparison test of liver ferritin (Berlin-blue reaction). The format is in vivo. The following applies: 6 male rats and 6 male mice; 2 doses corresponding to 52.2 mg Fe/kg; 24 hours after 2nd administration. As for the experimental part: After oral administration, sideropenia resulting from by-passing the normal regulating mechanism in the intestine for ionic iron, is quickly compensated. Thus, the results of an iron-deficient diet for rats and mice, such as reduced body weight, decrease of hemoglobin, of the hematocrit, of the serum iron and of the number of erythrocytes, is fully compensated by the administration once of a dose of one of the compounds according to the invention corresponding to 2 mg of iron per animal. The compounds according to the invention are resorbed well orally, the excretion of unchanged substance in urine usually being less than 1%. The compounds are distinguished by a distinct nontoxicity, the LD50 of 4-ferrocenoyl-cyclohexene thus amounting to 2000 mg/kg in mice and 3,000 mg/kg in rats. As can be shown by biochemical determination of the ferritin protein and its degree of iron saturation, the compounds are completely metabolised in the liver, that is, the iron is released and incorporated in the storage form that can be used to form hemoglobin, that is in liver ferritin, and in the case of an excess of added substance, in ferritin and in hemosiderin. These discoveries are supported by histological comparison tests, in which the increase of liver ferritin is recognisable in a Berlin-blue reaction in the form of a uniform blue shading of the cytoplasma of the liver cells, and any hemosiderin that may have formed is recognisable in the form of fine blue grains.
The compounds were administered to 6 male rats and 6 male mice on two successive days in individual doses corresponding to an iron content of 52.2 mg Fe per kg of animal. 24 hours after the 2nd administration the animals were killed. […] The quantitative determination of the ferritin protein and its iron content (table) confirm these findings. For this, ferritin is isolated from the liver by thermal denaturation, ammonium sulfate fractionation and gel filtration, and the protein is determined by amino acid analysis and the iron content by atom absorption.

The test system of data set [3] is ability to utilize the iron. The following applies: among 2a-d, according to details in the literature; cited from earlier work.
For the next data set, the system named is mice. Put plainly: Acute toxicity (LD50) in mice.
A further data set deals with rats. Put plainly: Acute toxicity (LD50) in rats.

Regarding “1,1'-di-(3,5,5-trimethyl-hexanoyl)-ferrocene [Example 2b]”, the “Ratio of iron to protein” value in the data set with liver ferritin [1] is reported as 0.26. In the data set with liver ferritin [1] (rat liver), this compound gave a Ferritin-iron of 148 μg/g tissue and a Ferritin-protein of 567 μg/g tissue.
Consider “1,1'-di-hexahydrobenzoyl ferrocene [Example 2c]”, for which the “Ratio of iron to protein” value in the data set on liver ferritin [1] amounted to 0.42. Moreover, in the data set on liver ferritin [1] (rat liver), the Ferritin-iron is reported as 94 μg/g tissue and the Ferritin-protein is recorded as 224 μg/g tissue. The “histological increase of the liver ferritin” value (“histological increase” below) with liver ferritin [2] is on record as “do not cause any histologically recognisable increase of the liver ferritin”.
Consider “1,1'-di-neopentyl ferrocene [Example 2d]”, for which the “Ratio of iron to protein” value in the data set with liver ferritin [1] is 0.38. Besides, in the data set on liver ferritin [1] (rat liver), the Ferritin-iron amounted to 61 μg/g tissue and the Ferritin-protein turned out to be 130 μg/g tissue. Also, the “histological increase” value in the data set with liver ferritin [2] was “do not cause any histologically recognisable increase of the liver ferritin”. The “ability to utilize the iron” value in data set [3] is reported as “the best, especially regarding its ability to utilize the iron”.
For the compound `O=C([c-]1cccc1)C1CC=CCC1.[Fe+2].c1cc[cH-]c1` (centres unmarked) [Example 1, 4-Ferrocenoyl-cyclohexene], the “Ratio of iron to protein” value with liver ferritin [1] was determined as 1.19. The “ferritin protein and its iron content in comparison with the known compounds 2a-d” value in the data set with liver ferritin [1] (rat liver, after administration, from the table) is listed as “clearly increased more markedly”. In the data set on liver ferritin [1] (rat liver), this compound had a Ferritin-iron of 1133 μg/g tissue and a Ferritin-protein of 950 μg/g tissue. Besides, in the data set with liver ferritin [2], the “hemosiderin particles, histologically” value is on record as “individual hemosiderin particles are observed”; the “histological increase” value was “in comparison with 2a and 2b exhibits a substantially greater increase of the liver ferritin”. For the same compound, the LD50 in the data set on mice amounted to 2000 mg/kg. Moreover, the LD50 in the data set with rats is reported as 3,000 mg/kg.
With `O=C([c-]1cccc1)C1CCCCC1.[Fe+2].c1cc[cH-]c1` [Example 2a, hexahydrobenzoyl ferrocene], the “Ratio of iron to protein” value with liver ferritin [1] is recorded as 0.43. In the data set on liver ferritin [1] (rat liver), this compound had a Ferritin-iron of 209 μg/g tissue and a Ferritin-protein of 475 μg/g tissue.
